# Measured values as given in patent publication US7662382B2, “Inducible ligand for α1β1 integrin and uses” (Boys Town National Research Hospital, priority 2002, dated 2010).
# Columns and labels:
# [1] = test system: primary kidney endothelial cell cultures; experiment: Binding of Alexa-568-conjugated α1β1 integrin to treated primary kidney endothelial cells; assay type: cell-based, mouse
# Method: Primary endothelial cells were isolated from wild type mouse kidneys using anti-CD31 coated metallic beads. Cells were cultured in endothelial cell medium (DMEM/F12, 50 μg/ml Endothelial mitogen, 1% penicillin/streptomycin, 20 mM L-Glutamine, and 1 U/mL heparin prepared fresh not filtered) containing 20% FCS. Thirty-two wells of 5×10^4 cells/well in a 96 well plate coated with 1% gelatin in sterile PBS were set up. Cells were maintained in endothelial cell media with 20% FCS until cells reached confluence. Confluent cells were washed with HBSS, then covered with endothelial cell media without serum at 200 μL/well and kept in a humidified chamber at 37° C., 5% CO2. Twenty-four hours later fresh endothelial cell medium was added without serum and various concentrations of MCP-1 and H2O2 were added at 24 or 48 hours (hrs) prior to conducting the assay for cell binding to α1β1 integrin as shown in the following Table 1.
# [2] = target: T1, ligand for α1β1 integrin on endothelial cells (Collagen XIII) (Mus musculus, UniProt Q9R1N9); experiment: Monocyte efflux into the interstitium of Alport kidneys after injection of purified α1β1 integrin (Alexa 568 dextran trafficking); assay type: in vivo; settings: Alport mice, 5 μg purified α1β1 integrin into tail vein daily from one day before labeled dextrans, kidneys three days after dextrans, vs untreated Alport mice
# T1 construct: from tissue; host or cells: vascular endothelium of kidneys of living Alport (collagen IV α3 -/-) mice
# Excerpt: Male wild type 129SV and 129SVJ mice (4-12 weeks old) along with collagen IV α3 (−/−) (Alport: 5-8 weeks old) and collagen IV α3 (−/−)/integrin α1 (−/−) double knock out (DKO: 8-12 weeks old) mice were tail vein injected with […] of Alexa 568 labeled dextran reconstituted in 100 microliters (μL) Hanks Balanced Salt Solution (pH 7.2). Three days post injection animals were given a lethal injection of averitin (0.55 grams per kilogram (g/kg) body weight; ip) followed by cardiac perfusion with ice cold PBS. Kidneys were removed and immersed in increasing concentrations of ice cold sucrose (30% max) then embedded in Tissue Tek OCT mounting medium (Sakura Finetek USA, Inc., Torrence, Calif.) and stored at −80° C.
# Fresh frozen tissue sections (4 μm) were fixed in 2% paraformaldehyde for 5 minutes and allowed to dry overnight at 4° C. followed by extended storage at −20° C. or immunohistochemical detection of monocytes using rat monoclonal α-CD11b (Cedar Lane laboratories, Hornby, Ontario) and Goat anti rat Alexa 488 (Molecular Probes, Inc. Eugene, Oreg.) antibodies at 1:100 and 1:200 dilutions respectively. Sections were cover slipped with vectorshield mounting medium (Vector Corp. Burlingme, Calif.). […] Green fluorescence alone as well as co-localized dual fluorescence were measured using Image Pro Plus software (Media Cybernetics, Inc. Silver Spring, Md.). […]
# [3] = Pilot stability study with Alexa-conjugated integrin α1β1; settings: Alexa-conjugated integrin α1β1, data not shown
# Method: In an attempt to provide a more definitive test for the function of α1β1 in monocyte efflux into diseased kidneys, 5 μg of purified α1β1 integrin was injected into the tail vein of Alport mice daily, starting one day before injection of labeled dextrans, and kidneys harvested three days following injection of dextrans. Pilot studies with Alexa-conjugated integrin α1β1 were conducted to assess the stability prior to the blocking experiments. […] If transendothelial migration of monocytes into the interstitial space is mediated, in part, through binding a ligand on endothelial cells, a decrease in labeled monocytes in Alport mice treated with α1β1 integrin compared to untreated age-matched Alport mice should be observed, since the purified integrin should occupy ligand, making less available for binding to monocytes.
# [4] = test system: renal cortical vascular endothelium; experiment: Binding of Alexa 568-labeled purified α1β1 integrin to kidney vascular endothelium after tail vein injection; assay type: in vivo, mouse; settings: 24 hours after tail vein injection
# Excerpt: If such a direct role exists, there must be a ligand for α1β1 integrin on the renal cortical vascular endothelium of Alport mice that is absent on normal mice. To test for the presence of such a ligand, purified α1β1 integrin (purchased from Chemicon, Temecula, Calif.) was labeled with Alexa 568, and the labeled integrin injected into the tail vein of normal, Alport, and DKO mice. Twenty-four hours following the injection, kidneys were harvested, and cryosections examined. […] Since monocytes phagocytize labeled dextrans, what is interpreted as integrin might be phagocytized integrin in monocytes.
# T1 sequence (Q9R1N9 whole entry): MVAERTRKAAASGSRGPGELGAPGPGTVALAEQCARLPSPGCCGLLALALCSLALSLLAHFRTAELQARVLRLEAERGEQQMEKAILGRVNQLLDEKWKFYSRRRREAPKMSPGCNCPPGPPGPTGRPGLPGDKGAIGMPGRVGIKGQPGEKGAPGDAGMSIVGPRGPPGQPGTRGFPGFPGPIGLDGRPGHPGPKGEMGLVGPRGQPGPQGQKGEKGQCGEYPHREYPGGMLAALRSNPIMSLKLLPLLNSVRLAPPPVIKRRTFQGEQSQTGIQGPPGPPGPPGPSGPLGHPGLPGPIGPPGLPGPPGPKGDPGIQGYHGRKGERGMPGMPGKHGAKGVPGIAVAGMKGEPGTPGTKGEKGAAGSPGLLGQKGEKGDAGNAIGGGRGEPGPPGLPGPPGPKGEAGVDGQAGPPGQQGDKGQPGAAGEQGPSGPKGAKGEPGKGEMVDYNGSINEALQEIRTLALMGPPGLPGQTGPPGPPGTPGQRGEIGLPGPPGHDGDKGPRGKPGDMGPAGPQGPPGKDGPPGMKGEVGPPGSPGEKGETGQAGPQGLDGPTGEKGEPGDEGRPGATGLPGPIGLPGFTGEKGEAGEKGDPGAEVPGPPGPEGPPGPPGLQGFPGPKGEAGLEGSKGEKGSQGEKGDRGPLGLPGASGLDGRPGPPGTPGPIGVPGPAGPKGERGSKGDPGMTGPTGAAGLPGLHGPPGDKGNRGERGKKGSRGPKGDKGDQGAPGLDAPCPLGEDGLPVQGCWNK
compound,measurement,setting,value
"OO [hydrogen peroxide, reference compound]",binding of Alexa-conjugated α1β1 integrin to cultured primary kidney endothelial cells,"[1]; cells treated with hydrogen peroxide (24 or 48 hrs), concentration and time-dependent",promotes the binding
"MCP-1: recombinant monocyte chemo-attractive protein-1, a chemokine",adhesion of α1β1 integrin to endothelial cells,"[1]; cells pre-treated with recombinant MCP-1 (24 or 48 hrs) vs untreated cells, time and dose dependent",significantly elevated adhesion
"purified α1β1 integrin: purified human α1β1 integrin purchased from Chemicon, Temecula, Calif.; also used labeled with Alexa 568",monocyte efflux (Alexa-labeled CD11b-positive monocytes in the interstitium),[2],a trend for a reduction in monocyte efflux
same,stability of the purified integrin,[3],at least 72 hours
same,labeling of kidney cryosections by Alexa 568-labeled integrin,[4]; Alport mice,strong labeling in the vascular endothelium
same,labeling of kidney cryosections by Alexa 568-labeled integrin,[4]; normal (control) mice,absence of label
